Measured values taken from PMC10079954, “Rational design of phase separating peptides based on phase separating protein sequence of p53” (Scientific Reports, 2023).
Blank lines part the entries; values can stand above or below the molecule they belong to.

Experiments:
[1] = Cross-β structure detection with amyloid-sensitive probe Picogreen; assay type: physicochemical; conditions: Picogreen 25 µM, 25 mM HEPES, 0.5 mM EDTA, pH 7.0
Experimental: (§1) Differential interference contrast (DIC) microscopy confirmed that these peptides (0.9–1.8 mM) underwent phase separation in 25 mM HEPES and 0.5 mM EDTA at pH 7.0 (Fig. 2B). To prevent the melting of clusters on the coverslip surface, 2-methacryloyloxyethyl phosphorylcholine (MPC) polymer coating was used[36],[37] (Supplementary Fig. S1). Samples were prepared by sonicating a 2 mM peptide solution or diluting the peptide solution from a 10 mM peptide stock after storage under freezing conditions. Four of the designed peptides, except DPp53N-GSGS-DPp53C2, formed μm-sized spherical clusters. Fluorescence microscopy confirmed the high concentration of peptides labeled with the fluorescent dye Alexa488 in the clusters (Fig. 2B). […] Cross-β structure was also supported by the observation of intrinsic fluorescence upon 400–440 nm excitation[40] (Supplementary Fig. S2). Clusters of aromatic W residues in DPp53N-GSGS-DPp53C2 may lead to the formation of solid aggregates, which is consistent with the results of different systems[21],[34].
The DIC and fluorescence modes of an inverted microscope (IX-73; Olympus, Tokyo, Japan) equipped with microscopic objectives (60 × and 10 ×) and a camera (DP74) were used, as described previously. We used the solution containing 0.9–1.8 mM designed peptide, 0.1 μM Alexa488-labeled peptide, 25 mM HEPES, and 0.5 mM EDTA at pH 7.0. To detect the cross-β structure, picogreen was added at 25 µM for DPp53N-GSGS-DPp53C2 or 2.5 µM for others instead of the Alexa488-labeled peptide. […] DIC and fluorescence images were obtained at 20 or 22 °C. For intrinsic fluorescence measurements, the excitation and detection wavelengths were 440–440 nm and larger than 460 nm, respectively.
Fig. S8 Time course of cross-β structure formation of designed peptides in droplets monitored by DIC and fluorescence images. The fluorescence was detected corresponding to the amyloid marker Picogreen at 2.5 µM in a solution containing 0.9 mM designed peptides, 25 mM HEPES, and 0.5 mM EDTA at pH 7.0 and 22 °C.

[2] = Phase separation of designed peptides by DIC and fluorescence microscopy; assay type: physicochemical; conditions: DIC microscopy; 0.9–1.8 mM peptide, 25 mM HEPES, 0.5 mM EDTA, pH 7.0, no salt, MPC polymer-coated coverslip, 20 or 22 °C
Experimental: as §1, with “Clusters of aromatic W residues in DPp53N-GSGS-DPp53C2 may lead to the formation of solid aggregates, which is consistent with the results of different systems[21],[34].” left out
The DIC and fluorescence modes of an inverted microscope (IX-73; Olympus, Tokyo, Japan) equipped with microscopic objectives (60 × and 10 ×) and a camera (DP74) were used, as described previously. […] DIC and fluorescence images were obtained at 20 or 22 °C. For intrinsic fluorescence measurements, the excitation and detection wavelengths were 440–440 nm and larger than 460 nm, respectively.

[3] = Salt and 1,6-hexanediol dependence of droplet/aggregate formation (scattering at 350 nm, DIC); assay type: physicochemical; conditions: 1 mM peptide, 25 mM HEPES, 0.5 mM EDTA, pH 7.0, 22 °C; scattering at 350 nm and DIC
Experimental: We detected light scattering corresponding to the designed peptide droplets by measuring OD350 values using an absorbance spectrometer (NanoDrop One; Thermo Fisher).
(A, B) Effect of additives, 1,6-hexandiol (1,6-HD) and NaCl, on aggregate formation of DPp53N-GSGS-DPp53C2 was monitored as the scattering intensity observed at 350 nm (A) and via DIC images (B). The measurements were conducted in a solution containing 25 mM HEPES, 0.5 mM EDTA, and 1 mM DPp53N-GSGS-DPp53C2 in the presence or absence of additives at pH 7.0 and 22 °C.
Fig. S7 Designed peptide droplets are sensitive to salt concentration but not to 1,6-hexandiol. (A, B) Salt-concentration dependence of droplet formation of designed peptides monitored as the scattering intensity at 350 nm (A) and via DIC images (B). (C, D) Effect of 1,6-hexandiol on droplet formation of designed peptides monitored as the scattering intensity at 350 nm (C) and via DIC images (D). The measurements were performed in a solution containing 1 mM designed peptides, 25 mM HEPES, and 0.5 mM EDTA at pH 7.0 and 22 °C. In panels (A) and (C), the errors denote the standard errors of at least three measurements.

[4] = tested on: p53 monomer (L344P) mutant; assay: Recruitment (enrichment index) of p53 monomer into designed peptide droplets; parameters: species or system human
From the text: (§2) We prepared p53 tetramer, dimer, and monomer mutants, as described previously[8],[37],[50]. For the p53 tetramer, a thermostable and cysteine-modified human p53 mutant (C124A, C135V, C141V, W146Y, C182S, V203A, R209P, C229Y, H233Y, Y234F, N235K, Y236F, T253V, N268D, C275A, C277A, and K292C) was used[50]. The dimer and monomer mutants of p53 corresponded to L344A and L344P of the tetramer sequence, respectively[8],[37]. These p53 mutants were expressed with a glutathione S-transferase (GST) tag in E. coli and purified after cleavage of the GST tag, as described previously[50],[51]. The oligomeric state of p53 mutants was confirmed using a gel filtration column (Superdex 200; GE Healthcare). p53 mutants were labeled with Atto488 (ATTO-TEC) or Alexa488 (Thermo Fisher) using maleimide chemistry and then purified using a heparin column (GE Healthcare). We prepared Alexa488-labeled FUS-MBP as described previously[37],[39].
(§3) Recruitment evaluations were performed following the method described in our previous studies[37],[41]. Solutions containing 0.9–1.8 mM designed peptides, 0.1 µM Alexa488-labeled p53 mutants or Alexa488, 25 mM HEPES, 0.5 mM EDTA, and 1 mM DTT at pH 7.0 were used. The solutions were then incubated at 22 °C for five minutes. The aforementioned microscope was used with HILO illumination. To prevent photo-bleaching of the fluorescent samples, we used a laser power of 0.15 mW. The images were acquired at 22 °C. Using the ImageJ software, we calculated the EI values of the individual droplets as follows:2 EI=Idroplet/Isolution, where Idroplet and Isolution represent the average fluorescence intensities of the individual droplets and solutions near the droplets with background substitution, respectively.

p53 tetramer = assay: Recruitment (enrichment index) of p53 tetramer into designed peptide droplets; parameters: species or system human; conditions: no salt, pH 7.0
From the text: as §2, §3

p53 dimer (L344A) mutant = assay: Recruitment (enrichment index) of p53 dimer into designed peptide droplets; parameters: species or system human; conditions: (GGGS)3-linker versus GSGS-linker droplets; no salt, pH 7.0
From the text: as §2
Recruitment evaluations were performed following the method described in our previous studies[37],[41]. […] Using the ImageJ software, we calculated the EI values of the individual droplets as follows:2 EI=Idroplet/Isolution, where Idroplet and Isolution represent the average fluorescence intensities of the individual droplets and solutions near the droplets with background substitution, respectively.

5-FAM-labeled DP_(p53N) = assay: fluorescence polarisation; fluorescence anisotropy; non-labeled peptide titrated into 40 nM 5-FAM-labeled DP_(p53N); 25 mM HEPES, 0.5 mM EDTA, 2 mg/mL BSA, 2 mM Trolox, pH 7.0, 25 °C; one-to-one binding model

Picogreen fluorescence of clusters [1]: high intensity
Aggregate formation at high concentrations of salt and 1,6-hexanediol [3]: not significantly suppressed
Molecule: RRRVVQRRRRGSGSEDDDWWMWWD [DPp53N-GSGS-DPp53C2]
Cluster morphology (phase separation) [2]: non-spherical clusters that corresponded to solid aggregates

Molecule: RRRVVQRRRRGSGSDDDASQEDDD [DPp53N-GSGS-DPp53C1]
Enrichment index (EI) of p53 monomer (L344P) mutant in peptide droplets ([4]; 0.9–1.8 mM designed peptide, 0.1 µM Alexa488-labeled p53, 25 mM HEPES, 0.5 mM EDTA, 1 mM DTT, pH 7.0, 22 °C, ± standard error, SEM): 14.7 ± 0.5
Decrease of average EI of p53 tetramer relative to p53 monomer (p53 tetramer; droplet interior regions, surface not included): 2.6 fold

Molecule: RRRVVQRRRRGGGSGGGSGGGSDDDDDDD [DPp53N-(GGGS)3-D7]
Decrease of average EI of p53 monomer mutant compared to the GSGS-linker peptide ([4]; (GGGS)3-linker versus GSGS-linker droplets, no salt, pH 7.0): 1.8 fold
Increase of average EI of p53 tetramer compared to the GSGS-linker peptide (p53 tetramer; (GGGS)3-linker versus GSGS-linker droplets): 3.1 fold
Increase of average EI of p53 dimer mutant compared to the GSGS-linker peptide (p53 dimer (L344A) mutant): 3.3 fold

fold higher affinity than the DP (p53C)1 fragment for the DP (p53N) fragment (5-FAM-labeled DP_(p53N)): 2 fold
Molecule: GSGSDDDDDDD [GSGS-D7]
